Among the test systems are U251 CNS; KM12 colon; PC-3 prostate; OVCAR-3 ovarian; SR leukemia; SNB-19 CNS; SF-295 CNS; RXF 393 renal.
What all share (assay): inhibition of tumour cell growth, NCI panel, 48 h

Data on twelve compounds can be found in PubChem BioAssay (NCI).

The structures appear in SMILES notation. “And” between values parts separate entries of the source, which are not always exact repeats. Equal entries are not always repeated.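 Five concentrations, 48 hours, 96-well plates. GI50 = concentration required for 50% inhibition of growth. TGI marks complete inhibition of growth.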

Consider `CCN(CC)CCCC(CCl)Nc1ccnc2cc(Cl)ccc12` (centres undefined), for which the GI50 with U251 CNS is 23.4 µM and > 50 µM; with KM12 colon, 16.7 µM and 16.2 µM; with PC-3 prostate, 27.2 µM and 34.9 µM; in the experiment on OVCAR-3 ovarian, 10.9 µM and 6.23 µM; in the experiment on SR leukemia, 0.421 µM; in the experiment on SNB-19 CNS, 94.8 µM and > 89.7 µM. The GI50 with SF-295 CNS is 13.1 µM and 12.6 µM; in the experiment with RXF 393 renal, 4.95 µM and 10.6 µM. Besides, the TGI was 69.7 µM and > 100 µM with U251 CNS; 34 µM and 50.6 µM in the experiment with KM12 colon; greater than 100 µM in the experiment with PC-3 prostate; 34.7 µM and 28 µM with OVCAR-3 ovarian; 3.25 µM in the experiment on SR leukemia; greater than 100 µM with SNB-19 CNS. Also, the TGI is 26.3 µM and 28.6 µM with SF-295 CNS; 24.5 µM and > 49.1 µM in the experiment with RXF 393 renal.
As for `Oc1ccc2ccccc2c1N=Nc1cccc2ccccc12`, the TGI in the experiment with U251 CNS, in the experiment with KM12 colon, with PC-3 prostate, in the experiment with OVCAR-3 ovarian, with SR leukemia and with SNB-19 CNS was greater than 100 µM each time. Besides, the TGI in the experiment on SF-295 CNS and with RXF 393 renal was greater than 100 µM each time.
As to `CC(=O)OC1OC([C@H]2c3cccc(O)c3C(=O)c3c(O)cc(C)cc32)C(O)C(O)C1O` (some centres undefined), the GI50 is less than 0.0164 µM in the experiment with U251 CNS; 0.202 µM with KM12 colon; 0.029 µM with OVCAR-3 ovarian; 0.0308 µM with SR leukemia; 0.0342 µM in the experiment on SNB-19 CNS; 0.0817 µM in the experiment on SF-295 CNS. Also, in the experiment on RXF 393 renal, the GI50 was less than 0.0267 µM. Besides, the TGI in the experiment on U251 CNS came out at 0.244 µM; in the experiment with KM12 colon, 0.624 µM; in the experiment with PC-3 prostate, 1.09 µM; in the experiment with OVCAR-3 ovarian it was 0.0885 µM; in the experiment with SR leukemia it was 0.119 µM; in the experiment with SF-295 CNS it was 0.239 µM. The TGI with RXF 393 renal was 0.346 µM.
`CSC(SC)(C(=O)O)c1cc(-c2c(Cl)cccc2Cl)no1`: the TGI with U251 CNS, in the experiment with PC-3 prostate, in the experiment on OVCAR-3 ovarian, in the experiment with SR leukemia, in the experiment on SNB-19 CNS and in the experiment on SF-295 CNS was greater than 100 µM each time.
With `CN(C)Cc1cc(C(F)(F)F)ccc1C(O)(c1ccccc1)c1ccccc1`, the TGI is 24.9 µM in the experiment on U251 CNS; 49.6 µM in the experiment on KM12 colon; 36 µM with PC-3 prostate; greater than 100 µM in the experiment on OVCAR-3 ovarian; 28 µM with SR leukemia; 38.4 µM in the experiment on SNB-19 CNS. For the same compound, the TGI with SF-295 CNS is 50 µM; in the experiment on RXF 393 renal, 25.4 µM.
Take `COc1ccc2c(c1)OC1=C(C(=O)OC1)C2c1cc(OC)c2c(c1)OCCO2` (centres undefined): the GI50 is 0.0433 µM with U251 CNS; 0.0464 µM in the experiment with KM12 colon; 0.0487 µM in the experiment with PC-3 prostate; 0.0285 µM in the experiment with OVCAR-3 ovarian; 0.0318 µM in the experiment on SR leukemia; 0.0697 µM with SNB-19 CNS. Moreover, the GI50 in the experiment on SF-295 CNS is 0.0312 µM. Further, the TGI with KM12 colon was greater than 100 µM; in the experiment with PC-3 prostate, greater than 100 µM; in the experiment on OVCAR-3 ovarian, 0.0714 µM; with SR leukemia, greater than 100 µM; in the experiment on SNB-19 CNS it was greater than 100 µM; with SF-295 CNS, greater than 100 µM.
Consider `O=C(Oc1ccc[nH]c1=O)c1cc([N+](=O)[O-])cc([N+](=O)[O-])c1`, for which the GI50 in the experiment with U251 CNS was greater than 100 µM; in the experiment on KM12 colon it was 36.3 µM; with PC-3 prostate, greater than 100 µM; with OVCAR-3 ovarian, greater than 100 µM; with SR leukemia, 74.8 µM; in the experiment with SNB-19 CNS, greater than 100 µM. Besides, the results for the GI50 with SF-295 CNS and in the experiment with RXF 393 renal were 26.6 µM and greater than 100 µM, respectively. Moreover, the TGI in the experiment with U251 CNS, with KM12 colon, in the experiment on PC-3 prostate, in the experiment with OVCAR-3 ovarian, in the experiment on SR leukemia and in the experiment with SNB-19 CNS was greater than 100 µM each time. In addition, the TGI in the experiment on SF-295 CNS and with RXF 393 renal was greater than 100 µM throughout.
With `Cn1c(Cl)c(/C=C2/C(=O)Nc3ccccc32)c2ccccc21`, the GI50 in the experiment on U251 CNS is 0.758 µM; in the experiment on KM12 colon it was 0.0689 µM; in the experiment with PC-3 prostate, 0.859 µM; with OVCAR-3 ovarian, 0.204 µM; in the experiment with SNB-19 CNS, 0.935 µM; in the experiment on SF-295 CNS, 0.223 µM. Moreover, the GI50 with RXF 393 renal is 0.392 µM. Also, the TGI in the experiment on U251 CNS was 14.9 µM; in the experiment on KM12 colon, 1.27 µM; in the experiment on PC-3 prostate, greater than 33.7 µM; in the experiment on OVCAR-3 ovarian, 1.26 µM; with SNB-19 CNS it was 29.9 µM; in the experiment on SF-295 CNS, 2.21 µM. The compound further yielded a TGI in the experiment on RXF 393 renal greater than 19.6 µM.
As for `CC(C)C(O)(C(C)C)C(C)C`, the TGI in the experiment with U251 CNS, with KM12 colon, with PC-3 prostate, in the experiment on OVCAR-3 ovarian, in the experiment on SR leukemia and with SNB-19 CNS was greater than 100 µM in each case. Besides, the TGI in the experiment on SF-295 CNS and in the experiment on RXF 393 renal was greater than 100 µM each time.
In the case of `[N-]=[N+]=NCCCn1c2c(c3ccc([N+](=O)[O-])cc3c1=O)C(=O)c1ccccc1-2`, the GI50 is 4.28 µM in the experiment with U251 CNS; greater than 100 µM in the experiment on KM12 colon; 38 µM in the experiment with PC-3 prostate; 4.82 µM in the experiment with SF-295 CNS; 0.0923 µM in the experiment with RXF 393 renal. Further, the TGI was greater than 100 µM with U251 CNS; greater than 100 µM in the experiment on KM12 colon; greater than 100 µM in the experiment on PC-3 prostate; greater than 100 µM with SF-295 CNS; 78.2 µM with RXF 393 renal.
As for `Cc1ccc(S(=O)(=O)N=Nc2c(O)[nH]c3cc(O)c(C(=O)O)cc23)cc1`, the TGI with U251 CNS, in the experiment with KM12 colon, in the experiment on PC-3 prostate, in the experiment with OVCAR-3 ovarian, with SR leukemia and with SNB-19 CNS was greater than 100 µM throughout. Further, the TGI with SF-295 CNS and in the experiment on RXF 393 renal was greater than 100 µM throughout.
As to `CNC(=O)OCc1c(COC(=O)NC)c(-c2ccc(-c3ccccc3)cc2)n(C)c1C`, the TGI with U251 CNS was 10.9 µM; in the experiment on KM12 colon it was 24.9 µM; with PC-3 prostate, 12.3 µM; with OVCAR-3 ovarian, 7.88 µM; in the experiment on SR leukemia, greater than 100 µM; in the experiment on SNB-19 CNS, 16.9 µM. Moreover, the TGI turned out to be 10.8 µM with SF-295 CNS and 2.91 µM in the experiment with RXF 393 renal.
